# In patent publication US20100022559A1, “BISOXIMES AS FUNGICIDES” (BAYER CROPSCIENCE AG, priority 2006, published 2010):
# Assay: logP determination by HPLC on a reversed-phase column (C 18), EEC Directive 79/831 Annex V.A8
# Assay type: physicochemical
# Experimental: The stated logP values were determined in accordance with EEC Directive 79/831 Annex V.A8 by HPLC (high performance liquid chromatography) on a reversed-phase column (C 18). Temperature: 43° C.
# [1] = method marker [a] (footnote not shown), isomer A / isomer B / isomer mixture as noted in the cell
# [2] = method marker [b], isomer A / isomer B / isomer mixture as noted in the cell
compound,measurement,setting,value
CC(=NOCC1(CON=C(C)c2cccc(C)n2)CCCCC1)c1cccc(C)n1 [Compound 561],logP,method marked [b] in Table 1,6.09^[b]
same,logP,method marked [c] in Table 1,7.15^[c]
"CCC(=NOCC(C)CON=C(CC)c1ncccc1C)c1ncccc1C (single isomer, unassigned) [compound 101]",logP,[1],4.23^[a] (isomer B)
CCCC(=NOCC(C)CON=C(CCC)c1cccc(C)n1)c1cccc(C)n1 (stereo not shown) [Compound 112],logP,[1],6.61^[a]
N/C(=N\OCc1ccc(CO/N=C(\N)c2nc(C3CC3)cc(C3CC3)n2)cc1)c1nc(C2CC2)cc(C2CC2)n1 [compound 720],logP,method marked [b] in Table 1,3.76^[b]
CC(=NOCC(CON=C(C)c1ccc(C)c(C)n1)Cc1ccccc1)c1ccc(C)c(C)n1 (stereo not shown) [Compound 581],logP,method marked [b] in Table 1,5.01^[b]
same,logP,method marked [c] in Table 1,7.05^[c]
CC(=NOCCCCCCON=C(C)c1cc2ccccc2o1)c1cccc(C)n1 [compound 393],logP,value marked [b],5.78^[b]
CC(=NOCC(C)CON=C(C)c1ccc2c(n1)CCCC2)c1ccc2c(n1)CCCC2 (stereo not shown) [Compound 304],logP,value marked [a],4.69^[a]
"COCc1nc(C(N)=NOC/C=C/CON=C(N)c2nc(COC)c(C)c(COC)n2)nc(COC)c1C (single isomer, unassigned) [compound 768]",logP,value marked [b],1.68^[b] (isomer A)
C=C(CON=C(C)c1c(C)noc1C)CON=C(C)c1c(C)noc1C [compound 25],logP,[2],"3,57^[b]"
CC(=NOCCCCCCON=C(C)c1cccc(C)n1)c1cccc(Cl)c1 [compound 456],logP,value marked [b],6.58^[b]
C=C(CON=C(C)c1ccc(C)c(C)n1)CON=C(C)c1ccc(C)c(C)n1 [Compound 67],logP,[2],2.82^[b]
"C=C(CON=C(C)c1cccc(C)n1)CON=C(C)c1ncccc1C (single isomer, unassigned) [Compound 203]",logP,[2],3.03^[b] (isomer A)
"Cc1cc(C)nc(C(N)=NOC/C=C/CON=C(N)c2cc(C)cc(C)n2)c1 (single isomer, unassigned) [compound 770]",logP,value marked [b],2.55^[b] (isomer B)
CC(=NOC(C)CC(C)ON=C(C)c1ccc(C)c(C)n1)c1ccc(C)c(C)n1 (stereo not shown) [Compound 322],logP,value marked [b],3.4^[b]
same,logP,value marked [c],6.79^[c]
CC(=NOCC(C)(C)CON=C(C)c1cccc(-c2ccccc2)n1)c1cccc(-c2ccccc2)n1 [Compound 575],logP,method marked [a] in Table 1,7.36^[a]
CC(=NOCC(C)CON=C(C)c1cccc(C)n1)c1ccc2c(c1)OCO2 (stereo not shown) [compound 435],logP,value marked [b],4.57^[b]
C=C(CON=C(C)c1cccc(C)n1)CON=C(C)c1cccc(OC)n1 [compound 207],logP,[2],4.82^[b]
"Cc1cccnc1C(Cc1ccccc1)=NOCC(C)CON=C(Cc1ccccc1)c1ncccc1C (single isomer, unassigned) [compound 108]",logP,[1],5.32^[a] (isomer A)
Cc1cccc(C(=NOCC(C)(C)CON=C(c2ccccc2)c2cccc(C)n2)c2ccccc2)n1 (mixture of isomers) [compound 660],logP,method marked [a] in Table 1,4.09^[a]
CC(=NOCCCON=C(C)c1cncc(C)c1)c1cncc(C)c1 [compound 163],logP,[1],1.54^a]
CC(=NOCCCCON=C(C)c1cccc(C)n1)c1cccnc1 [compound 384],logP,value marked [b],2.18^[b]
CC(=NOC1CCC(ON=C(C)c2cccc(C)n2)C1)c1cccc(C)n1 (mixture of isomers) [compound 797],logP,value marked [a],4.60^[a]
C=C(CON=C(N)c1cc(C)cc(C)c1)CON=C(C)c1cccc(C)n1 [compound 185],logP,[2],3.17^[b]
CC(=NOCC(C)CON=C(C)c1nc(C)c(C)s1)c1cccc(C)n1 (stereo not shown) [compound 434],logP,value marked [b],4.85^[b]
CCC(=NOCCCCCCON=C(C)c1cccc(C)n1)c1ncccc1C [compound 343],logP,value marked [b],4.87^[b] (isomer B)
CCC(=NOCC(C)(C)CON=C(CC)c1cccc(C)n1)c1cccc(C)n1 [compound 883],logP,value marked [b],6.81^[b]
same,logP,value marked [c],7.36^[c]
C=C(CON=C(C)c1cccc(C)n1)CON=C(N)c1cc(C)cc(C)n1 [Compound 189],logP,[2],2.92^[b]
CC(=NOCCCC(=O)ON=C(C)c1cccc(C)n1)c1cccc(C)n1 [compound 171],logP,[1],2.44^[a]
N/C(=N\OCc1cccc(CO/N=C(\N)c2ncc(F)cc2F)c1)c1ncc(F)cc1F [compound 714],logP,method marked [b] in Table 1,2.96^[b]
"C=C(CON=C(C)c1cccc(C)n1)CON=C(CC)c1ncccc1C (single isomer, unassigned) [compound 142]",logP,[2],3.84^[b] (isomer )B
C=C(CON=C(C)c1cccc(C(C)=O)n1)CON=C(C)c1cccc(C(C)=O)n1 [compound 120],logP,[2],5.15^[b]
"C=C(CON=C(C)c1nc(C)c(C)s1)CON=C(C)c1nc(C)c(C)s1 (single isomer, unassigned) [compound 68]",logP,[2],5.25^[b]
Cc1ccc(C(=NOCCCON=C(c2ccc(C)c(C)n2)C(C)C)C(C)C)nc1C (mixture of isomers) [compound 238],logP,[1],4.94^[a]
CC(=NOCCCON=C(C)c1cnc(-c2ccccc2)s1)c1cnc(-c2ccccc2)s1 [compound 49],logP,[2],7.07^[b]
Cc1cccnc1C(CC(C)C)=NOCCCON=C(CC(C)C)c1ncccc1C [compound 93],logP,[1],5.96^[a]
"Cc1cccc(C(CC(C)C)=NOCCCON=C(CC(C)C)c2cccc(C)n2)n1 (single isomer, unassigned) [Compound 115]",logP,[1],7.08^[a] (isomer B)
C=C(CON=C(C)c1cc(C)c2ccccc2n1)CON=C(C)c1cc(C)c2ccccc2n1 [compound 160],logP,[2],7.00^b]
C=C(CON=C(C)c1cccn1C)CON=C(C)c1cccn1C [compound 21],logP,[2],5.03^[b]
CCOC(=O)C(=NOCCCON=C(C(=O)OCC)c1cccc(C)n1)c1cccc(C)n1 [compound 76],logP,[1],4.31^[a]
CC(=NOCC(C)CON=C(C)c1cccc(Cc2ccccc2)n1)c1cccc(Cc2ccccc2)n1 (stereo not shown) [Compound 173],logP,[1],7.36^[a]
CC(=NOCCCCON=C(C)c1cccc(C)n1)c1cc(C)ccn1 [Compound 373],logP,value marked [b],2.66^[b]
CC(=NOCC(C)(C)CON=C(C)c1csc(C)n1)c1csc(C)n1 [compound 518],logP,value marked [a],3.99^[a]
same,logP,value marked [b],3.99^[b]
CCOC(CON=C(C)c1cccc(C)n1)CON=C(C)c1cccc(C)n1 (stereo not shown) [Compound 586],logP,method marked [b] in Table 1,2.87^b]
same,logP,method marked [c] in Table 1,4.76^[c]
CC(=NOC(=O)NCCCCNC(=O)ON=C(C)c1cc(C)cc(C)n1)c1cc(C)cc(C)n1 [compound 852],logP,value marked [a],1.63^[a]
"CC(=NOCCCCCCON=C(C)c1sc(C)nc1C)c1cccc(C)n1 (single isomer, unassigned) [compound 542]",logP,method marked [b] in Table 1,3.99^[b] (isomer A)
CC(=NOCCCCCCCCCCON=C(C)c1cccc(C)n1)c1cccc(C)n1 [compound 74],logP,[2],7.36^[b]
C=C(CON=C(C)c1ccc2ccc(C)cc2n1)CON=C(C)c1ccc2ccc(C)cc2n1 [compound 749],logP,method marked [b] in Table 1,7.36^[b]
same,logP,method marked [c] in Table 1,7.36^[c]
CCc1cccc(C(C)=NOCCCCON=C(C)c2cccc(C)n2)n1 [compound 329],logP,value marked [b],4.72^[b]
C/C(=N\OCC1(CO/N=C(\C)c2ccc(C)c(C)n2)CC(c2cccc(Cl)c2)=NO1)c1ccc(C)c(C)n1 [compound 635],logP,method marked [b] in Table 1,4.51^[b]
CC(=NOCCCCON=C(C)c1cccc(C)n1)c1cccc(Cl)c1 [compound 442],logP,value marked [b],5.54^[b]
C/C(=N\OCC(C)(C)CO/N=C(\C)c1cncc(C)n1)c1cccc(C)n1 [compound 492],logP,value marked [b],4.41^[b]
"C=C(CON=C(C)c1ccnc(C)c1)CON=C(C)c1cccc(C)n1 (single isomer, unassigned) [compound 533]",logP,value marked [b],1.74^[b] (isomer A)
C=C(CON=C(C)c1cccc(C)n1)CON=C(C)c1cc2ccccc2o1 [compound 404],logP,value marked [b],4.57^[b]
CCC(=NOCC(C)(C)CON=C(CC)c1ccc(C)c(C)n1)c1ccc(C)c(C)n1 [Compound 280],logP,value marked [a],5.58^[a]
CC(=NOCCCON=C(C)c1sc(C)nc1C)c1sc(C)nc1C [compound 54],logP,[2],3.10^[b]
CC(=NOCC1(CON=C(C)c2ccc(C)c(C)n2)CCCCC1)c1ccc(C)c(C)n1 [Compound 320],logP,value marked [b],5.34^[b]
same,logP,value marked [c],7.36^[c]
CC(=NOCCON=C(C)c1ncc(Cl)cc1Cl)c1ncc(Cl)cc1Cl [compound 55],logP,[2],5.39^[b]
"CC(=NOCC(CON=C(C)c1nc(C)ccc1C)c1ccccc1)c1nc(C)ccc1C (single isomer, unassigned) [compound 755]",logP,method marked [b] in Table 1,3.62^[b]
same,logP,method marked [c] in Table 1,5.45^[c]
C=C(CO/N=C(\N)c1ncc(F)cc1F)CO/N=C(\N)c1ncc(F)cc1F [compound 45],logP,[2],2.42^[b]
C=C(CON=C(C)c1ccc(C(F)(F)F)cn1)CON=C(C)c1cccc(C)n1 [Compound 66],logP,[2],5.15^[b]
CCC(CON=C(C)c1cc(C)cc(C)n1)CON=C(C)c1cc(C)cc(C)n1 (stereo not shown) [Compound 679],logP,method marked [b] in Table 1,2.61^[b]
"Cc1cccc(C(=NOCC(C)(C)CON=C(c2cccc(C)n2)C2CC2)C2CC2)n1 (single isomer, unassigned) [compound 282]",logP,value marked [a],3.75^[a] (isomer A)
CCC1=NOC(CON=C(C)c2cccc(C)n2)(CON=C(C)c2cccc(C)n2)C1 (stereo not shown) [compound 594],logP,method marked [a] in Table 1,2.68^[a]
CC(=NOCC(C)CON=C(C)c1ccc(Cl)nc1)c1ccc(Cl)nc1 (stereo not shown) [compound 106],logP,[1],4.79^[a]
"CC(=NOCCCCON=C(CC(C)C)c1cccc(C)n1)c1cccc(C)n1 (single isomer, unassigned) [compound 530]",logP,value marked [b],5.48^[b] (isomer B)
CC(=NOCC(CON=C(C)c1cc(C)cc(C)n1)Cc1ccccc1)c1cc(C)cc(C)n1 (stereo not shown) [Compound 582],logP,method marked [b] in Table 1,3.62^[b]
same,logP,method marked [c] in Table 1,6.97^[c]
N/C(=N\OC/C=C/CO/N=C(\N)c1nc(C2CC2)cc(C2CC2)n1)c1nc(C2CC2)cc(C2CC2)n1 [compound 722],logP,method marked [b] in Table 1,3.13^[b]
"C=C(CON=C(C)c1ccccn1)CON=C(C)c1cccc(C)n1 (single isomer, unassigned) [compound 400]",logP,value marked [b],3.15^[b] (isomer B)
"Cc1cccnc1C(CC(C)C)=NOCC(C)CON=C(CC(C)C)c1ncccc1C (single isomer, unassigned) [compound 102]",logP,[1],6.50^[a] (isomer B)
